Source: the NIST ThermoML archive (doi:10.1016/j.tca.2014.04.026)
Numbers after ± are expanded uncertainties.

Test: molar heat capacity at constant pressure; wn = mass fraction of the nth substance listed
Conditions: 101 kPa, Liquid, Small sample (50 mg) DSC

CCn1cc[n+](C)c1.N#C[C-](C#N)C#N [1-ethyl-3-methyl-1H-imidazolium tricyanomethanide] + CCn1cc[n+](C)c1.N#CN=C=[N-]
molar heat capacity at constant pressure [J/K/mol]
Conditions	w2 = 0	w2 = 0.25	w2 = 0.5	w2 = 0.75
296.2 K	357 ± 7	354 ± 7	344 ± 7	335 ± 7
300.2 K	360 ± 7	355 ± 7	346 ± 7	338 ± 7
304.2 K	362 ± 7	356 ± 7	347 ± 7	339 ± 7
308.2 K	364 ± 7	357 ± 7	348 ± 7	340 ± 7
312.2 K	366 ± 7	358 ± 7	350 ± 7	342 ± 7
316.2 K	367 ± 7	359 ± 7	352 ± 7	343 ± 7
320.2 K	369 ± 7	360 ± 7	352 ± 7	344 ± 7
324.2 K	370 ± 7	361 ± 7	354 ± 7	345 ± 7
328.2 K	372 ± 7	363 ± 7	356 ± 7	347 ± 7
332.2 K	374 ± 8	365 ± 7	358 ± 7	349 ± 7
336.2 K	377 ± 8	367 ± 7	360 ± 7	352 ± 7
340.2 K	379 ± 8	370 ± 7	362 ± 7	354 ± 7
344.2 K	382 ± 8	372 ± 7	365 ± 7	356 ± 7
348.2 K	384 ± 8	374 ± 8	367 ± 7	359 ± 7
352.2 K	387 ± 8	377 ± 8	370 ± 7	362 ± 7
356.2 K	390 ± 8	381 ± 8	373 ± 7	365 ± 7
360.2 K	393 ± 8	383 ± 8	376 ± 8	368 ± 7
364.2 K	396 ± 8	385 ± 8	380 ± 8	371 ± 7
368.2 K	399 ± 8	388 ± 8	383 ± 8	374 ± 8
372.2 K	403 ± 8	391 ± 8	387 ± 8	378 ± 8
